Measurements taken from article PMC2997755 (Clinical cancer research : an official journal of the …, 2009).
Where two headings read alike, the source gives them in different places.

Key:
clinical = format: in vivo; details: for AUC(0-inf) / AUC(0-t) / clearance / Cmax / half-life: human, plasma
[1] = human, in vivo
[2] = Vorinostat serum pharmacokinetics, cycle 1; format: in vivo; details: for CL/F / AUC(0-inf) / AUC(0-t) / Cmax / half-life: mean (St dev); for AUC(0-inf) / AUC(0-t) / Cmax / half-life: human, serum, oral; for AUC(0-inf): AUCinf; for AUC(0-t): AUCt
[3] = cited from earlier work
[4] = Phase I safety and tolerability: DLTs, MTD, adverse events; details: sequential schedule dose level -1b; days 6-12, with decitabine 10 mg/m^2/day on days 1-5
[5] = 100 mg, Sequential schedule, 100 mg BID, day 9 of cycle 1
[6] = 200 mg, Concurrent schedule, 200 mg BID, day 4 of cycle 1
[7] = 200 mg, Sequential schedule, 200 mg BID, day 9 of cycle 1
[8] = 200 mg, Sequential schedule, 200 mg TID, day 9 of cycle 1
[9] = 200 mg, Concurrent schedule, 200 mg TID, day 4 of cycle 1

Question: With `Nc1ncn([C@H]2C[C@H](O)[C@@H](CO)O2)c(=O)n1` [decitabine, 5-aza-2'-deoxycytidine] as the molecule, how does the “Pharmacokinetic parameters on day 1 versus day 5 within the same dose level” value (clinical; either schedule) read?
Answer: Its value is “No significant differences”.

Question: What about the AUC(0-inf) (clinical; intravenous, 10 mg/m2, AUCinf, Concurrent schedule, 10 mg/m^2, Day 1, mean (St dev)) of the same molecule?
Answer: Its AUC(0-inf) is 77.6 ng·h/mL.

Question: What about the AUC(0-inf) (clinical; intravenous, 10 mg/m2, AUCinf, Concurrent schedule, 10 mg/m^2, Day 5, mean (St dev)) of the same molecule?
Answer: Its AUC(0-inf) is 57.4 ng·h/mL.

Question: And the AUC(0-inf) (clinical; intravenous, 10 mg/m2, AUCinf, Sequential schedule, 10 mg/m^2, Day 1, mean (St dev))?
Answer: The AUC(0-inf) was 48.4 ng·h/mL.

Question: And the AUC(0-inf) (clinical; intravenous, 10 mg/m2, AUCinf, Sequential schedule, 10 mg/m^2, Day 5, mean (St dev))?
Answer: The AUC(0-inf) was 57.8 ng·h/mL.

Question: What about the AUC(0-t) (clinical; intravenous, 10 mg/m2, AUCt, Concurrent schedule, 10 mg/m^2, Day 1, mean (St dev)) of the same molecule?
Answer: Its AUC(0-t) is 75.8 ng·h/mL.

Question: And the AUC(0-t) (clinical; intravenous, 10 mg/m2, AUCt, Concurrent schedule, 10 mg/m^2, Day 5, mean (St dev))?
Answer: Its AUC(0-t) is 56.3 ng·h/mL.

Question: And the AUC(0-t) (clinical; intravenous, 10 mg/m2, AUCt, Sequential schedule, 10 mg/m^2, Day 5, mean (St dev))?
Answer: Its AUC(0-t) is 55.8 ng·h/mL.

Question: What about the clearance (clinical; intravenous, 10 mg/m2, CL, Concurrent schedule, 10 mg/m^2, Day 1, mean (St dev)) of the same molecule?
Answer: The clearance was 4670 mL/min.

Question: And the clearance (clinical; intravenous, 10 mg/m2, CL, Concurrent schedule, 10 mg/m^2, Day 5, mean (St dev))?
Answer: Its clearance is 5570 mL/min.

Question: What about the clearance (clinical; intravenous, 10 mg/m2, CL, Sequential schedule, 10 mg/m^2, Day 1, mean (St dev)) of the same molecule?
Answer: Its clearance is 7600 mL/min.

Question: And the clearance (clinical; intravenous, 10 mg/m2, CL, Sequential schedule, 10 mg/m^2, Day 5, mean (St dev))?
Answer: The clearance was 6130 mL/min.

Question: And the Cmax (clinical; intravenous, 10 mg/m2, Cmax, Concurrent schedule, 10 mg/m^2, Day 1, mean (St dev))?
Answer: Its Cmax is 88.6 ng/mL.

Question: What about the Cmax (clinical; intravenous, 10 mg/m2, Cmax, Concurrent schedule, 10 mg/m^2, Day 5, mean (St dev)) of the same molecule?
Answer: The Cmax was 62.9 ng/mL.

Question: What about the Cmax (clinical; intravenous, 10 mg/m2, Cmax, Sequential schedule, 10 mg/m^2, Day 1, mean (St dev)) of the same molecule?
Answer: Its Cmax is 57.5 ng/mL.

Question: And the Cmax (clinical; intravenous, 10 mg/m2, Cmax, Sequential schedule, 10 mg/m^2, Day 5, mean (St dev))?
Answer: Its Cmax is 67.5 ng/mL.

Question: What about the half-life (clinical; intravenous, 10 mg/m2, t1/2, Concurrent schedule, 10 mg/m^2, Day 1, mean (St dev)) of the same molecule?
Answer: The half-life was 16.2 min.

Question: And the half-life (clinical; intravenous, 10 mg/m2, t1/2, Concurrent schedule, 10 mg/m^2, Day 5, mean (St dev))?
Answer: The half-life was 16.2 min.

Question: What about the half-life (clinical; intravenous, 10 mg/m2, t1/2, Sequential schedule, 10 mg/m^2, Day 1, mean (St dev)) of the same molecule?
Answer: The half-life was 20.4 min.

Question: What about the half-life (clinical; intravenous, 10 mg/m2, t1/2, Sequential schedule, 10 mg/m^2, Day 5, mean (St dev)) of the same molecule?
Answer: The half-life was 22.8 min.

Question: What about the AUC(0-inf) (clinical; intravenous, 15 mg/m2, AUCinf, Sequential schedule, 15 mg/m^2, Day 1, mean (St dev)) of the same molecule?
Answer: The AUC(0-inf) was 116 ng·h/mL.

Question: What about the AUC(0-inf) (clinical; intravenous, 15 mg/m2, AUCinf, Sequential schedule, 15 mg/m^2, Day 5, mean (St dev)) of the same molecule?
Answer: The AUC(0-inf) was 116 ng·h/mL.

Question: What about the AUC(0-t) (clinical; intravenous, 15 mg/m2, AUCt, Sequential schedule, 15 mg/m^2, Day 1, mean (St dev)) of the same molecule?
Answer: Its AUC(0-t) is 112 ng·h/mL.

Question: What about the AUC(0-t) (clinical; intravenous, 15 mg/m2, AUCt, Sequential schedule, 15 mg/m^2, Day 5, mean (St dev)) of the same molecule?
Answer: The AUC(0-t) was 114 ng·h/mL.

Question: And the clearance (clinical; intravenous, 15 mg/m2, CL, Sequential schedule, 15 mg/m^2, Day 1, mean (St dev))?
Answer: Its clearance is 5670 mL/min.

Question: What about the clearance (clinical; intravenous, 15 mg/m2, CL, Sequential schedule, 15 mg/m^2, Day 5, mean (St dev)) of the same molecule?
Answer: Its clearance is 3930 mL/min.

Question: And the Cmax (clinical; intravenous, 15 mg/m2, Cmax, Sequential schedule, 15 mg/m^2, Day 1, mean (St dev))?
Answer: Its Cmax is 129 ng/mL.

Question: And the Cmax (clinical; intravenous, 15 mg/m2, Cmax, Sequential schedule, 15 mg/m^2, Day 5, mean (St dev))?
Answer: Its Cmax is 142 ng/mL.

Question: What about the half-life (clinical; intravenous, 15 mg/m2, t1/2, Sequential schedule, 15 mg/m^2, Day 1, mean (St dev)) of the same molecule?
Answer: The half-life was 22.8 min.

Question: And the half-life (clinical; intravenous, 15 mg/m2, t1/2, Sequential schedule, 15 mg/m^2, Day 5, mean (St dev))?
Answer: Its half-life is 19.8 min.

Question: What about the AUC(0-inf) (clinical; intravenous, 20 mg/m2, AUCinf, Sequential schedule, 20 mg/m^2, Day 1, mean (St dev)) of the same molecule?
Answer: Its AUC(0-inf) is 119 ng·h/mL.

Question: What about the AUC(0-inf) (clinical; intravenous, 20 mg/m2, AUCinf, Sequential schedule, 20 mg/m^2, Day 5, mean (St dev)) of the same molecule?
Answer: Its AUC(0-inf) is 165 ng·h/mL.

Question: What about the AUC(0-t) (clinical; intravenous, 20 mg/m2, AUCt, Sequential schedule, 20 mg/m^2, Day 1, mean (St dev)) of the same molecule?
Answer: The AUC(0-t) was 115 ng·h/mL.

Question: And the AUC(0-t) (clinical; intravenous, 20 mg/m2, AUCt, Sequential schedule, 20 mg/m^2, Day 5, mean (St dev))?
Answer: The AUC(0-t) was 161 ng·h/mL.

Question: And the clearance (clinical; intravenous, 20 mg/m2, CL, Sequential schedule, 20 mg/m^2, Day 1, mean (St dev))?
Answer: Its clearance is 5280 mL/min.

Question: What about the clearance (clinical; intravenous, 20 mg/m2, CL, Sequential schedule, 20 mg/m^2, Day 5, mean (St dev)) of the same molecule?
Answer: Its clearance is 3920 mL/min.

Question: What about the Cmax (clinical; intravenous, 20 mg/m2, Cmax, Sequential schedule, 20 mg/m^2, Day 1, mean (St dev)) of the same molecule?
Answer: Its Cmax is 135 ng/mL.

Question: And the Cmax (clinical; intravenous, 20 mg/m2, Cmax, Sequential schedule, 20 mg/m^2, Day 5, mean (St dev))?
Answer: The Cmax was 198 ng/mL.

Question: What about the half-life (clinical; intravenous, 20 mg/m2, t1/2, Sequential schedule, 20 mg/m^2, Day 1, mean (St dev)) of the same molecule?
Answer: The half-life was 21.6 min.

Question: What about the half-life (clinical; intravenous, 20 mg/m2, t1/2, Sequential schedule, 20 mg/m^2, Day 5, mean (St dev)) of the same molecule?
Answer: Its half-life is 25.2 min.

Question: What about the half-life (clinical; iv, half-life, patients, 1-hour intravenous infusion) of the same molecule?
Answer: Its half-life is roughly 20 min.

Question: And the “Dose proportionality of Cmax and AUC” value (clinical; sequential schedule, increasing doses of decitabine)?
Answer: The value was “did not produce dose proportional increases”.

Question: And the “RP2D (recommended phase II dose)” value [1]?
Answer: The value was 10 mg/m^2/day.

Question: What does the source list for `O=C(CCCCCCC(=O)Nc1ccccc1)NO` [vorinostat, suberoylanilide hydroxamic acid]?
Answer: Cmax, AUCinf and AUCt, concurrent versus sequential schedule ([2]; 200mg BID dose level, p 0.09, 0.004 and 0.0005): lower in the concurrent schedule; CL/F ([2]; Concurrent schedule, 200 mg BID, day 4 of cycle 1): 5.3 (2.3) ml/min; CL/F ([2]; Sequential schedule, 100 mg BID, day 9 of cycle 1): 4.3(2.3) ml/min; CL/F ([2]; Sequential schedule, 200 mg BID, day 9 of cycle 1): 3(0.7) ml/min; CL/F ([2]; Sequential schedule, 200 mg TID, day 9 of cycle 1): 4(3.7) ml/min; AUC(0-inf) [2, 5]: 446 ng·h/mL; AUC(0-t) [2, 5]: 424 ng·h/mL; Cmax [2, 5]: 165 ng/mL; half-life ([2]; 100 mg, t1/2, Sequential schedule, 100 mg BID, day 9 of cycle 1): 83.4 min; AUC(0-inf) [2, 6]: 708 ng·h/mL; AUC(0-inf) [2, 7]: 1180 ng·h/mL; AUC(0-inf) [2, 8]: 1350 ng·h/mL; AUC(0-t) [2, 6]: 573 ng·h/mL; AUC(0-t) [2, 9]: 883 ng·h/mL; AUC(0-t) [2, 7]: 1020 ng·h/mL; AUC(0-t) [2, 8]: 1090 ng·h/mL; Cmax [2, 6]: 214 ng/mL; Cmax [2, 9]: 227 ng/mL; Cmax [2, 7]: 313 ng/mL; half-life ([2]; 200 mg, t1/2, Concurrent schedule, 200 mg BID, day 4 of cycle 1): 143 min; half-life ([2]; 200 mg, t1/2, Sequential schedule, 200 mg BID, day 9 of cycle 1): 153 min; half-life ([2]; 200 mg, t1/2, Sequential schedule, 200 mg TID, day 9 of cycle 1): 103 min; Dose proportionality of AUC and Cmax after a single administration ([2]; sequential schedule, dose increased from 100 mg to 200 mg): increased proportionaly; maximum tolerated dose, monotherapy ([3]; patients with hematologic malignancies): 250 mg orally thrice a day for 14 days every 21 days; maximum tolerated dose, monotherapy ([3]; patients with solid tumors): 200 mg orally twice a day continuously; RP2D (recommended phase II dose) [4]: 200 mg twice daily
